Experimental data: patent publication US8575135B2 (Gilead Sciences, Inc., priority 2011, dated 2013)
Read-outs that look alike come from different tables or passages of the source.

Experiments:
Assay in all cases: microbe, parasite or virus in culture
Settings in all cases: Hepatitis C virus
[1] = system: stable HCV 1a RLuc replicon cells (genotype 1a H77 replicon); type: cell-based
[2] = system: stable HCV 2a JFH-1 Rluc replicon cells (L31 present in NS5A); type: cell-based
[3] = system: NS5A chimeric genotype 1b Con1 replicon with genotype 3a S52 strain NS5A gene; type: cell-based, HCV
Procedure, shortened: (§1)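 Con1-based 3a and 4a chimeras carried a Pi-RLuc reporter and were transiently transfected into Huh-Lunet cells; the JFH-1-based 2b chimera (RLuc-Neo) was used transiently or as stable replicon cells.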

[4] = system: NS5A chimeric genotype 2a JFH-1 replicon with genotype 2a J6 strain NS5A gene (M31 present); type: cell-based, HCV
[5] = system: NS5A chimeric genotype 2a JFH-1 replicon with genotype 2b MD2b-1 strain NS5A gene (M31 present); type: cell-based, HCV
Procedure, shortened: as §1

[6] = system: NS5A chimeric genotype 1b Con1 replicon with genotype 4a ED43 strain NS5A gene; type: cell-based, HCV
[7] = system: 1a Pi-Rluc replicon with Q30R in genotype 1a NS5A; type: cell-based, HCV
Procedure, shortened: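 Q30R introduced by site-directed mutagenesis into genotype 1a Pi-RLuc replicon; RNA transiently transfected into Huh-7-derived cured-51 cells.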

| Compound | EC50 ([1]; read-out: 1a) [nM] | EC50 ([1]; read-out: 1a (nM)) [nM] | EC50 ([2]; read-out: 2a JFH) [nM] | EC50 ([2]; read-out: 2a JFH (nM)) [nM] | EC50 ([3]; read-out: 3a) [nM] | EC50 ([3]; read-out: 3a (nM)) [nM] | EC50 ([4]; read-out: 2a J6) [nM] | EC50 ([4]; read-out: 2a J6 (s) (nM)) [nM] | EC50 ([4]; read-out: 2a Jb (t) (nM)) [nM] | EC50 ([5]; read-out: 2b) [nM] | EC50 ([5]; read-out: 2b (s) (nM)) [nM] | EC50 ([5]; read-out: 2b (t) (nM)) [nM] | EC50 ([6]; read-out: 4a) [nM] | EC50 ([6]; read-out: 4a (s) (nM)) [nM] | EC50 ([6]; read-out: 4a (t) (nM)) [nM] | EC50 ([7]; read-out: 1a Q30R) [nM] | EC50 ([7]; read-out: 1a Q30R (nM)) [nM] |
| --- | --- | --- | --- | --- | --- | --- | --- | --- | --- | --- | --- | --- | --- | --- | --- | --- | --- |
| COC(=O)N[C@H](C(=O)N1CCC[C@H]1c1ncc(-c2ccc3c(c2)COc2cc4c(ccc5nc([C@@H]6C[C@H](C)CN6C(=O)[C@H](NC(=O)OC)c6ccccc6)[nH]c54)cc2-3)[nH]1)C(C)C [Example MY, Methyl {2-[2-{9-[2-(1-{2-[(methoxycarbonyl)amino]-3-methylbutanoyl}pyrrolidin-2-yl)-1H-imidazol-5-yl]-1,11-dihydroisochromeno[4′,3′:6,7]naphtho[1,2-d]imidazol-2-yl}-4-(methyl)pyrrolidin-1-yl]-2-oxo-1-phenylethyl}carbamate] | < 1 | 0.016 | < 1 | 0.005 | < 1 | 0.01 | < 1 | 0.165 | 0.047 | < 1 | 0.047 | 0.016 | < 1 | 0.02 | 0.008 | < 1 | 0.024 |
| COC(=O)N[C@H](C(=O)N1C[C@@H](C)C[C@H]1c1nc2ccc3cc4c(cc3c2[nH]1)OCc1cc(-c2cnc([C@@H]3CCCN3C(=O)[C@H](NC(=O)OC)c3ccccc3)[nH]2)ccc1-4)C(C)C [Example NB, Methyl {(1R)-2-[(2S)-2-(5-{2-[(2S,4S)-1-{(2S)-2-[(methoxycarbonyl)amino]-3-methylbutanoyl}-4-methylpyrrolidin-2-yl]-1,11-dihydroisochromeno[4′,3′:6,7]naphtho[1,2-d]imidazol-9-yl}-1H-imidazol-2-yl)pyrrolidin-1-yl]-2-oxo-1-phenylethyl}carbamate] | < 1 | 0.01 | < 1 | 0.004 | < 1 | 0.011 | < 1 | 0.138 | 0.02 | < 1 | 0.039 | 0.007 | < 1 | 0.025 | 0.023 | < 1 | 0.034 |
| COC(=O)N[C@H](C(=O)N1C[C@@H](C)C[C@H]1c1nc2ccc3cc4c(cc3c2[nH]1)OCc1cc(-c2cnc([C@@H]3CC[C@H](C)N3C(=O)[C@@H](NC(=O)OC)C(C)C)[nH]2)ccc1-4)C(C)C [Example NC, Methyl {(2S)-1-[(2S,5S)-2-(5-{2-[(2S,4S)-1-{(2S)-2-[(methoxycarbonyl)amino]-3-methylbutanoyl}-4-methylpyrrolidin-2-yl]-1,11-dihydroisochromeno[4′,3′:6,7]naphtho[1,2-d]imidazol-9-yl}-1H-imidazol-2-yl)-5-methylpyrrolidin-1-yl]-3-methyl-1-oxobutan-2-yl}carbamate] | < 1 | 0.007 | < 1 | 0.005 | < 1 | 0.014 | < 1 | 0.762 | 0.089 | < 1 | 0.191 | 0.068 | < 1 | 0.026 | 0.011 | < 1 | 0.06 |
| COC(=O)N[C@H](C(=O)N1C[C@@H](C)C[C@H]1c1ncc(-c2ccc3c(c2)COc2cc4c(ccc5nc([C@@H]6C[C@H](C)CN6C(=O)[C@@H](NC(=O)OC)C(C)C)[nH]c54)cc2-3)[nH]1)C(C)C [Example ND, Methyl {(2S)-1-[(2S,5S)-2-(5-{2-[(2S,4S)-1-{(2S)-2-[(methoxycarbonyl)amino]-3-methylbutanoyl}-4-methylpyrrolidin-2-yl]-1,11-dihydroisochromeno[4′,3′:6,7]naphtho[1,2-d]imidazol-9-yl}-1H-imidazol-2-yl)-4-methylpyrrolidin-1-yl]-3-methyl-1-oxobutan-2-yl}carbamate] | < 1 | 0.02 | < 1 | 0.014 | < 1 | 0.035 | < 1 | 2.34 | 0.314 | < 1 | 1.32 | 0.27 | < 1 | 0.044 | 0.031 | < 1 | 0.057 |
